Patent publication US20180237745A1, “METHOD FOR CONTROLLING DIFFERENTIATION OF STEM CELLS” (GUANGZHOU INSTITUTES OF BIOMEDICINE AND HEALTH, CHINESE …, priority 2015, published 2018)

B1: Activin A (protein, UniProt P08476 311-426, looked up)
Inhibin beta A chain: GLECDGKVNICCKKQFFVSFKDIGWNDWIIAPSGYHANYCEGECPSHIAGTSGSSLSFHSTVINHYRMRGHSPFANLKSCCVPTKLRPMSMLYYDDGQNIIKKDIQNMIVEECGCS
modifications: Inhibin beta A chain
notes: growth factor (Peprotech) used to induce definitive endoderm differentiation of hESCs

Columns and labels:
human H1 ES cells [1] = assay: Bulk real-time qRT-PCR of marker genes in Activin A induced hESCs; type: cell-based
Procedure: Immunofluorescence staining.
Total RNA was extracted using the Trizol reagent (MRC, TR1187) and 2 μg of total RNA was reverse-transcribed using the ReverTraAce Kit (TOYOBO, 34520B1). The product (cDNA) was properly diluted and used as PCR template. PCR reactions were performed with the SYBR®Premix Ex Taq™ Kit (TAKARA, RR420A) on the CFX96 Touch™ Real-Time PCR Detection System (Bio-Rad). GAPDH was used as the internal control. Three to four biological replicates were performed for each assay and data represents mean±SD.
Culturing condition during differentiation is as follows.

H1-derived cells = conditions: day 3 cells induced by Activin A in the presence of RepSox, compared to DE cells
Description: Scratch assay was used to determine the migration activity of H1-derived cells. Briefly, cells in a confluent monolayer were scratched with a needle to form a cell-free zone into which cells at the edges of the wound can migrate. The denuded area was imaged to measure the boundary of the wound at pre-migration. Images of cell movement were captured at regular intervals within a 24-48 hr period for data analysis.

human H1 ES cells [2] = tested on: human H1 ES cells
Procedure: Undifferentiated human H1 ES cells were maintained in monolayer culture on Matrigel (BD Biosciences, 354277) in mTeSR1 medium (Stemcell Technologies, 05850) at 37° C. with 5% CO2. Cells were manually passaged at 1:4 to 1:6 split ratios every 3 to 5 days. For hepatic differentiation, we established a serum-free protocol based on previously described protocols with minor modifications^8, 9. Briefly, H1 cells were cultured for 3 days in RPMI/B27 medium (Insulin minus, Gibco, A18956-01) supplemented with 100 ng/ml Activin A (Peprotech, A120-14E), followed by 4 days with 20 ng/ml BMP2 (Peprotech, 120-02) and 30 ng/ml FGF-4 (Peprotech, 100-31) in RPMI/B27 (complete with Insulin, Gibco, 17504-044) medium, then 6 days with 20 ng/ml HGF (Peprotech, 100-39) and KGF (Peprotech, 100-19) in RPMI/B27 (complete with Insulin), then 8 days with 20 ng/ml Oncostatin-M (R&D Systems, 295-OM/CF) in Hepatocyte Culture Media (Lonza, cc-3198) supplemented with SingleQuots (without EGF). Immunofluorescence staining.
Single cell qPCR was performed using a Fluidigm C1 and BioMark HD as described by the manufacturer. Briefly, a cell suspension of a concentration of 166˜250 K/mL was loaded into a 10-17 μm C1™ Single-Cell Auto Prep IFC chamber (Fluidigm, PN100-5479), and cell capture was performed on the Fluidigm C1™ System. Both the empty wells and doublet-occupied wells were excluded from further analysis. Upon capture, reverse transcription and cDNA pre-amplification were performed using the Ambion Single Cell-to-CT Kit (Life Technologies, PN 4458237) and C1™ Single-Cell Auto Prep Module 2 Kit (Fluidigm, PN100-5519). The pre-amplified products were diluted 10-fold prior to analysis with TaqMan® Gene Expression Master Mix (Life Technologies, 4369016) and inventoried TaqMan® Gene Expression assays (20×, Applied Biosystems) in 96.96 dynamic Arrays™ on a BioMark System (Fluidigm). Inventoried TaqMan primers were used for single-cell qPCR. Relative expression was calculated as described in Buganim et al., 2012^22 except that a Ct value of 25 was used for low expressed genes. Relational network plots (mdsquish) were implemented as part of glbase^21 and will be described in detail elsewhere. Briefly, the normalized Euclidean distance between all cells was measured for singular value decomposed principal components 2, 3, 4 and 5. A network was then constructed using a threshold of 0.92 for weak links (dotted lines) and 0.99 for strong links (solid lines) with a maximum of the 50 best scoring edges per node, the network was then laid out using graphviz ‘neato’ layout. Node sizes are 2^[relative expression].
Culturing condition during differentiation is as follows. Nearly 50% confluent undifferentiated human H1 ES cells obtained from ATCC were passaged by Accutase 24 hr after seeding, cells were almost 90% confluent at 37° C. with 5% CO2. Then H1 cells were cultured for 3 days in RPMI/B27 medium (Insulin minus) supplemented with 100 ng/ml Activin A in the presence of 2 μM Repsox or not.
TGFβ-signaling inhibitor RepSox was added with a final concentration of 2 μM at day 0 from the start of differentiation of hESCs.
Expression of various markers of definite layer type cells, i.e., SOX1/PAX6 (ectoderm markers), GATA2/BMP4 (mesoderm markers), and SOX17/FOXA2 (endoderm markers) were tested during differentiation to evaluate the differentiated cells.

TGFβ = assay: ELISA of TGFβ protein in Activin A stimulated H1 cell culture media; type: cell-based, human; conditions: day 3 cells, Activin A (FIG. 4A)
Procedure: The protein level of TGFβ in the Activin A stimulated H1 cell culture media was determined with an ELISA Kit (R&D Systems, DB100B) as described by the manufacturer.

Molecule	expression of CDH1 (human H1 ES cells [1]; qRT-PCR (FIG. 4D))	expression of CDH2, SNAI1, SNAI2, ZEB1, KLF8 and VIM (human H1 ES cells [1]; qRT-PCR (FIG. 4D))	expression of mesendoderm/endoderm markers GSC, EOMES, MIXL1, SOX17, FOXA2, GATA4, GATA6, HHEX and LGR5 (human H1 ES cells [1]; qRT-PCR (FIG. 4D))	other lineage markers PAX6, GATA2, BMP4 and GATA3 (human H1 ES cells [1]; qRT-PCR (FIG. 4D))	migration ability of day 3 cells (H1-derived cells)	endoderm marker expression (human H1 ES cells [2]; Example 1: 100 ng/ml Activin A, 2 μM RepSox, 3 days (FIG. 4B-E))	ectodermal markers SOX1 and PAX6 (human H1 ES cells [2]; RepSox treated cells, day 3 (FIG. 4C))	EMT and formation of DE (human H1 ES cells [2]; day 3, Activin A treated hESCs, RepSox added, single cell-qPCR (FIG. 4C))	expression of POU5F1 and NANOG (human H1 ES cells [2]; day 3 Activin A cells treated with RepSox (FIG. 4C))	expression of CDH1 and SOX2 (human H1 ES cells [2]; day 3 Activin A cells treated with RepSox, compared with hESCs (FIG. 4C))	induction of SOX17 expression (human H1 ES cells [2]; day 3 Activin A-treated cells (FIG. 4C))	TGFβ protein in the culture media (TGFβ)	TGFB1 gene expression (human H1 ES cells [1]; qRT-PCR, day 3 (FIG. 6))
Cc1cccc(-c2[nH]ncc2-c2ccc3ncccc3n2)n1 [RepSox]	maintaining the expression of CDH1	blocked the expression	blocked the expression of mesendoderm/endoderm markers	mildly up-regulated	less motile	no endoderm marker is expressed	slightly induced	not only blocked the EMT but also the formation of DE	continued to express POU5F1 and NANOG	maintained the expression of CDH1 and SOX2 at the same level as hESCs	blocked its induction completely	–	–
B1	–	–	–	–	–	–	–	–	–	–	–	1.5 ng/mL	robust activation
